Laboratory results from patent US8901314B2, “Substituted pyrazoles as N-type calcium channel blockers” (Janssen Pharmaceutica NV, priority 2012, dated 2014).

Assays:
[1] = biological target: α1B (Cav2.2), β3 and α2δ subunits of the N-type calcium channel (stable HEK cell line) (Rattus norvegicus, UniProt Q02294); test: Calcium-dye indicator assay (FDSS, KCl depolarization); type: cell-based; settings: calcium mobilization response to 50 mM KCl; six-point concentration-response
Experimental: A stable cell line (HEK parent) co-expressing the α1B (Cav2.2), β3 and α2δ subunits of the N-type calcium channel subunits was used. These cells were routinely grown as monolayers in low glucose-containing Dulbecco's Modified Eagle Medium supplemented with 10% FBS, 2 mM L-glutamine, 100 I.U./mL penicillin, 100 μg/mL streptomycin, 400 μg/mL G418 and 200 μg/mL Zeocin (split ratio=1:5). Cells were maintained in 5% CO2 at 37° C. Compounds of Formula (I) were prepared as 10 mM stocks in DMSO from neat compound, if available. Otherwise, the 5 or 10 mM DMSO stock solutions provided in-house were used.
Calcium mobilization responses to KCl depolarization were evaluated by measuring the intensity of calcium-mediated fluorescent signal in the presence of BD Calcium Assay Dye (BD Biosciences, Franklin Lakes, N.J., U.S.A.), utilizing a Functional Drug Screening System (FDSS) by Hamamatsu Corporation (Bridgewater, N.J., U.S.A.).
Twenty-four hours prior to assay, cells were seeded in clear-base poly-D-lysine coated 384-well plates (BD Biosciences) at a density of 5,000 cells per well in culture medium and grown overnight in 5% CO2 at 37° C. On the day of assay growth media were removed and cells were loaded with BD calcium assay dye (BD Biosciences) for 35 min at 37° C. under 5% CO2 and then for 25 min at room temperature. Utilizing the FDSS, cells were exposed to representative compounds of Formula (I) at varying concentrations and intracellular calcium was measured for 5 min prior to the addition of 50 mM KCl for an additional 3 min of measurement.
Maximal fluorescence intensity (FI) achieved upon addition of 50 mM KCl was exported from the FDSS software and further analyzed using GraphPad Prism 4 (Graph Pad Software Inc., CA, U.S.A.). Data were normalized to the maximum average counts from quadruplicate wells for each condition in the presence of 50 mM KCl and to the minimum average counts in the presence of buffer. Theoretical curves were generated using nonlinear regression curve-fitting analysis of either sigmoidal concentration-response or sigmoidal concentration-response (variable slope), and the IC50 values with the best-fit dose curve determined by GraphPad Prism were reported.

[2] = test system: Cav2.2 (N-type calcium channel; α1B, α2δ and β3 subunits stably expressed in HEK293 cells); test: Automated electrophysiology assay (QPatch-HT patch clamp); type: cell-based
Experimental: The Cav2.2 (α1B) subunit (GenBank accession no. AAO53230; supplied by Lipscombe's laboratory at Brown University) was subcloned into pcDNA3.1, whereas the α2δ (M86621) and β3 (M88751) subunits were subcloned into pBudCE4.1 vectors. Stable cell lines expressing all three subunits were generated according to the following procedure: 1) HEK293 cells were transfected with α2δ−1/β3 expression constructs resulting in a stable cell line expressing α2δ−1 and β3 subunits that were selected under 200 μg/mL of Zeocin; 2) a stable cell line expressing α2δ−1/β3 subunits in high quantity as evidenced in its Western blots was isolated from the colony and purified; 3) this cell line was further transfected with Cav2.2 expression constructs, from which cells were subsequently selected under 400 μg/mL G418 and 200 μg/mL Zeocin; 4) these cells were clonally isolated, expanded and screened by Western blot analysis for expressing all three subunits
Cultures of cells stably expressing Cav2.2 were maintained at 37° C. in low glucose-containing Dulbecco's Modified Eagle medium (low glucose) under a 5% CO2 atmosphere. The medium was supplemented with 10% fetal bovine serum, 2 mM L-glutamine, 100 IU/mL penicillin, […] streptomycin, 400 μg/mL G418 and 200 μg/mL Zeocin.
High-throughput automated patch clamp system experiments were carried out using instruments (QPatch-HT) available from Sophion Biosciences, Inc. North Brunswick, N.J. Cells were grown in T175 flasks to 50%-90% confluence were enzymatically treated with Deatchin (Genlantis, San Diego, Calif., U.S.A.), centrifuged, rinsed and resuspended in 293 SFM II media (Life Technologies, Grand Island, N.Y., U.S.A.) supplemented with 25 mM HEPES (Sigma-Aldrich, St. Louis, Mo., U.S.A.) to a concentration of 2−3×10^6 cells/mL. Cells were added to automated cell preparation station on the QPatch-HT (Sophion Biosciences, North Brunswick, N.J., U.S.A.) and following a 10- to 30-min recovery period with gentle stirring, the assay protocol was initiated. During the automated cell preparation, cells were collected, centrifuged and resuspended in an extracellular (EC) solution containing 132 mM NaCl, 1.8 mM CaCl2, 5.4 mM KCl, 0.8 mM MgCl2, 10 mM glucose, and 10 mM HEPES (pH=7.4), adjusted with sucrose to 315 m0sm. The QPlate was primed with an intracellular solution containing 135 CsCl, 10 mM EGTA, 4 MgATP, 0.3 NaGTP, and 20 mM HEPES (pH=7.2), adjusted to approximately 290 m0sm with deionized water and the EC solution. Cells were added to the prepared QPlate wells by robotic pipettes of the QPatch-HT.
For cells determined to be in stable whole-cell patch clamp, the EC solution was replaced with a barium (Ba)/triethylammonium (TEA) solution containing 140 mM TEA-Cl, 10 mM BaCl2, 0.8 mM MgCl2, 10 mM glucose, and 10 mM HEPES (pH=7.4). High (40 mM) BaCl2 concentrations were made with adjustments of TEA-Cl (90 mM) to maintain the osmolarity. From a resting potential of −80 mV, a train of depolarizing pulses (15 pulses at 5 Hz, +20 mV) was delivered to the cell once every 30 sec for eight trains (4 min total), and the resulting currents were measured during a control period (no compound). This protocol was repeated for each subsequent addition of control buffer with or without compound (three periods total, each with four trains). The current generated in the 1st and 15th pulses of the last train of each period in the presence of each drug concentration was normalized to the current generated during the control period at the respective pulses (representing low- and high frequency stimulation, respectively). Data from both the second and third drug application period were analyzed for each cell. A final addition of Ba/TEA solution containing 60-100 uM CdCl2 was made to block all N-type current and “zero” the currents for each cell. A buffer/compound additions were made using a “spitting” feature of the QPatch-HT, which added three repretitions of 5 μL solution at the beginning of each recording period.

[3] = 0.1 μM, high frequency stimulation (15th pulse of 5 Hz train)
[4] = 0.1 μM, low frequency stimulation (1st pulse of train)

Row | SMILES | IC50 [1] | also measured
1 | COc1ccccc1-n1nc([C@@H]2CCO[C@@H](C(C)C)C2)cc1-c1ccc(Cl)cc1 (relative stereo) [Compound 69, 5-(4-Chlorophenyl)-1-(2-methoxyphenyl)-3-[(trans)-2-(1-methylethyl)tetrahydro-2H-pyran-4-yl]-1H-pyrazole] | 20 nM | –
2 | CC(C)Oc1ccccc1-n1nc(C2CC(C)(C)OC(C)(C)C2)cc1-c1ccc(Cl)cc1 [Compound 7, 5-(4-Chlorophenyl)-1-[2-(1-methylethoxy)phenyl]-3-(2,2,6,6-tetramethyltetrahydro-2H-pyran-4-yl)-1H-pyrazole] | 1.2 nM | –
3 | COc1ccccc1-n1nc(C2CC(C)(C)OC(C)(C)C2)cc1-c1ccc(N(C)C)cc1 [Compound 11, 4-[1-(2-Methoxyphenyl)-3-(2,2,6,6-tetramethyltetrahydro-2H-pyran-4-yl)-1H-pyrazol-5-yl]-N,N-dimethylaniline] | 2.4 nM | –
4 | COc1ccccc1-n1nc(C2CC(C)(C)OC(C)(C)C2)cc1-c1ccc2c(ccn2C)c1 [Compound 21, 5-[1-(2-Methoxyphenyl)-3-(2,2,6,6-tetramethyltetrahydro-2H-pyran-4-yl)-1H-pyrazol-5-yl]-1-methyl-1H-indole] | 5.7 nM | –
5 | COc1ccccc1-n1nc(C2CC(C)(C)OC(C)(C)C2)cc1-c1ccc(OC(C)C)cc1 [Compound 24, 1-(2-Methoxyphenyl)-5-[4-(1-methylethoxy)phenyl]-3-(2,2,6,6-tetramethyltetrahydro-2H-pyran-4-yl)-1H-pyrazole] | 11 nM | –
6 | COc1ccccc1-n1nc(C2CC(C)(C)OC(C)(C)C2)cc1-c1ccnc(Cl)c1 [Compound 25, 2-Chloro-4-[1-(2-methoxyphenyl)-3-(2,2,6,6-tetramethyltetrahydro-2H-pyran-4-yl)-1H-pyrazol-5-yl]pyridine] | – | QPatch % Inhibition, High Freq [2, 3]: 29%; QPatch % Inhibition, Low Freq [2, 4]: 14%
7 | COc1ccccc1-n1nc(C2CC(C)(C)OC(C)(C)C2)cc1-c1ccc2c(c1)OCCO2 [Compound 27, 5-(2,3-Dihydro-1,4-benzodioxin-6-yl)-1-(2-methoxyphenyl)-3-(2,2,6,6-tetramethyltetrahydro-2H-pyran-4-yl)-1H-pyrazole] | 1.5 nM | –
8 | COc1ccccc1-n1nc(C2CC(C)(C)OC(C)(C)C2)cc1-c1ccc([S+](C)[O-])cc1 (stereo not shown) [Compound 47, 5-(4-Methanesulfinyl-phenyl)-1-(2-methoxy-phenyl)-3-(2,2,6,6-tetramethyl-tetrahydro-pyran-4-yl)-1H-pyrazole] | – | QPatch % Inhibition, High Freq [2, 3]: 28%; QPatch % Inhibition, Low Freq [2, 4]: 25%
9 | CC1(C)CC(c2cc(-c3ccc(Cl)cc3)n(-c3ccccn3)n2)CC(C)(C)O1 [Compound 50, 2-[5-(4-Chloro-phenyl)-3-(2,2,6,6-tetramethyl-tetrahydro-pyran-4-yl)-pyrazol-1-yl]-pyridine] | – | QPatch % Inhibition, High Freq ([2]; 0.1 µM): 1%; QPatch % Inhibition, Low Freq ([2]; 0.1 µM): −37%
10 | CC1(C)CC(c2cc(-c3ccc(Cl)cc3)n(-c3ccncc3)n2)CC(C)(C)O1 [Compound 51, 4-[5-(4-Chlorophenyl)-3-(2,2,6,6-tetramethyltetrahydro-2H-pyran-4-yl)-1H-pyrazol-1-yl]-pyridine] | – | QPatch % Inhibition, High Freq ([2]; 0.1 µM): 22%; QPatch % Inhibition, Low Freq ([2]; 0.1 µM): −17%
11 | COc1ccccc1-n1nc(C2CC(C)(C)SC(C)(C)C2)cc1-c1ccc(Cl)cc1 [Compound 58, 5-(4-Chloro-phenyl)-1-(2-methoxy-phenyl)-3-(2,2,6,6-tetramethyl-tetrahydro-thiopyran-4-yl)-1H-pyrazole] | – | QPatch % Inhibition, High Freq [2, 3]: 26%; QPatch % Inhibition, Low Freq [2, 4]: 19%
12 | COc1ccccc1-n1nc(C2CC(C)(C)S(=O)(=O)C(C)(C)C2)cc1-c1ccc(Cl)cc1 [Compound 59, 5-(4-Chlorophenyl)-1-(2-methoxyphenyl)-3-(2,2,6,6-tetramethyl-1,1-dioxidotetrahydro-2H-thiopyran-4-yl)-1H-pyrazole] | – | QPatch % Inhibition, High Freq [2, 3]: 54%; QPatch % Inhibition, Low Freq [2, 4]: 54%

Continued, in another order:

Row | IC50 [1] | SMILES | also measured
13 | 58 nM | COc1ccc(-c2cc(C3CC(C)(C)OC(C)(C)C3)nn2-c2ccccc2OC)cc1OC [Compound 29, 5-(3,4-Dimethoxyphenyl)-1-(2-methoxyphenyl)-3-(2,2,6,6-tetramethyltetrahydro-2H-pyran-4-yl)-1H-pyrazole] | –
14 | 140 nM | COc1ccccc1-n1nc(C2CC(C)(C)OC(C)(C)C2)cc1-c1ccncc1 [Compound 32, 4-[1-(2-Methoxyphenyl)-3-(2,2,6,6-tetramethyltetrahydro-2H-pyran-4-yl)-1H-pyrazol-5-yl]pyridine] | –
15 | 82 nM | COc1ccccc1-n1nc(C2CC(C)(C)OC(C)(C)C2)cc1-c1ccnc(C)c1 [Compound 33, 4-[1-(2-Methoxyphenyl)-3-(2,2,6,6-tetramethyltetrahydro-2H-pyran-4-yl)-1H-pyrazol-5-yl]-2-methylpyridine] | –
16 | 120 nM | COc1cncc(-c2cc(C3CC(C)(C)OC(C)(C)C3)nn2-c2ccccc2OC)c1 [Compound 34, 3-Methoxy-5-[1-(2-methoxyphenyl)-3-(2,2,6,6-tetramethyltetrahydro-2H-pyran-4-yl)-1H-pyrazol-5-yl]-pyridine] | –
17 | 143 nM | COc1ccccc1-n1nc(C2CC(C)(C)OC(C)(C)C2)cc1-c1ccccc1NC(C)=O [Compound 36, N-{2-[1-(2-Methoxyphenyl)-3-(2,2,6,6-tetramethyltetrahydro-2H-pyran-4-yl)-1H-pyrazol-5-yl]-phenyl}-acetamide] | –
18 | 34 nM | COc1ccccc1-n1nc(C2CC(C)(C)OC(C)(C)C2)cc1C1=CCCC1 [Compound 37, 5-Cyclopent-1-en-1-yl-1-(2-methoxyphenyl)-3-(2,2,6,6-tetramethyltetrahydro-2H-pyran-4-yl)-1H-pyrazole] | –
19 | 110 nM | COc1ccccc1-n1nc(C2CC(C)(C)OC(C)(C)C2)cc1-c1ncc(C)s1 [Compound 38, 2-[1-(2-Methoxyphenyl)-3-(2,2,6,6-tetramethyltetrahydro-2H-pyran-4-yl)-1H-pyrazol-5-yl]-5-methyl-1,3-thiazole] | –
